Measurements: US8778882B2, “Agent for strengthening calcium containing tissue and use thereof” (Hayashibara Co., Ltd., priority 2002, dated 2014)

System: mouse pre-osteoblastic cell MC3T3-E1
Assay: Calcium deposition amount by Calcium C Test Wako
Assay type: cell-based
Text: Other flavonoid compounds than kaempferol or hesperetin were investigated where they have the same effect or not. Flavone (commercialized by Kanto Kagaku, Tokyo, Japan), apigenin (commercialized by Funakoshi, Co., Ltd., Tokyo, Japan), flavonol (commercialized by Tokyo Kasei Kogyo, Co., Ltd., Tokyo, Japan), quercetin (commercialized by Kanto Kagaku, Tokyo, Japan), kaempferol (commercialized by Funakoshi, Co., Ltd., Tokyo, Japan), rutin (commercialized by Kanto Kagaku, Tokyo, Japan), flavanone (commercialized by Kanto Kagaku, Tokyo, Japan), naringenin (commercialized by Ardrich Corporation), hesperetin (commercialized by Funakoshi, Co., Ltd., Tokyo, Japan), hesperidin (commercialized by Kanto Kagaku, Tokyo, Japan), chalcone (commercialized by Merk Corporation), fuloretin (commercialized by Sigma Corporation), catechin (commercialized by Sigma Corporation), ipriflavone (commercialized by Daito Corporation, Toyama, Japan), taxifolin (commercialized by Funakoshi, Co., Ltd., Tokyo, Japan), sulfuretin (commercialized by Funakoshi, Co., Ltd.; Tokyo, Japan), or cyanidin (commercialized by Funakoshi, Co., Ltd., Tokyo, Japan) was selected as test samples. Alkaline phosphatase activity was measured by the method of Experiment 1. Calcium deposition was measured by usual method using “Calcium C Test Wako” (commercialized by Wako Pure Chemical Industries, Osaka, Japan), briefly, cultured cells were washed with 1 ml of Dulbecco phosphate buffer saline three times after removing the medium. To the resultant was added 0.5 ml of 2N hydrochloric acid to resolve deposited calcium. To 5 μl of the resultant solution were added 0.5 ml of 0.88M monoethanolamine buffer (pH11) and 0.05 ml of 0.63 mM o-cresolphthalein complexone solution (binding to calcium ion to form chelate complex) containing 69 mM 8-quinolinol and mixed. Calcium amount per one hole of the plate was calculated by measuring absorbance 570 nm of the resultants and standardizing with a standard calcium solution. The judgement of alkaline phosphatase activity or calcium deposition amount of each sample was to calculate the relative activity or the relative calcium deposition amount to the negative control (only medium containing 0.2% (v/v) ethanol) and to compare each other.
The enhancement of calcium deposition between kaempferol and ipripfavone were compared. Test samples and their adding manner were same as Experiment 4. Calcium deposition amount was measured by usual method using “Calcium C Test Wako” (commercialized by Wako Pure Chemical Industries, Osaka, Japan); briefly, cultured cells were washed with 1 ml of Dulbecco phosphate buffer saline three times after removing the medium. To the resultant was added 0.5 ml of 2N hydrochloric acid to resolve deposited calcium. To 5 μl of the resolving solution were added 0.5 ml of 0.88M monoethanolamine buffer (pH11) and 0.05 ml of 0.63 mM o-cresolphthalein complexone solution (binding to calcium ion to form chelate complex) containing 69 mM 8-quinolinol and mixed, Calcium amount per one hole of the plate was calculated by measuring absorbance 570 nm of the resultants and standardizing with a standard calcium solution.
Kaempferol or hesperetin in combination with ipriflavone, or a kind of isoflavones, was investigated whether to enhance calcium deposition or not. Methods for preparing samples and culturing the cells were the same method described in Experiment 1 except culturing the cells for five days, Method for measuring calcium was the same method described in Experiment 3 and 5. Final ethanol concentration of the medium containing each sample was adjusted as same concentration.

SMILES: COc1ccc([C@@H]2CC(=O)c3c(O)cc(O)cc3O2)cc1O [Hesperetin]
- enhancing calcium deposition in combination with ipriflavone versus single use (FIGS. 3 and 4) (5, 10 or 20 μM each, five days culture): a synergy effect was confirmed
- Relative Calcium Deposition Amount (%) (flavonoid comparison, Calcium C Test Wako, relative to 0.2% (v/v) ethanol negative control): 289%
